Results as given in BindingDB's records for doi:10.1021/jm8014537 (Pfizer, 2010).

Molecular target: CYP2D6 (Homo sapiens, UniProt P10635)
Test: Inhibition of CYP2D6 in human liver microsomes

Chain of CYP2D6 (P10635 whole entry): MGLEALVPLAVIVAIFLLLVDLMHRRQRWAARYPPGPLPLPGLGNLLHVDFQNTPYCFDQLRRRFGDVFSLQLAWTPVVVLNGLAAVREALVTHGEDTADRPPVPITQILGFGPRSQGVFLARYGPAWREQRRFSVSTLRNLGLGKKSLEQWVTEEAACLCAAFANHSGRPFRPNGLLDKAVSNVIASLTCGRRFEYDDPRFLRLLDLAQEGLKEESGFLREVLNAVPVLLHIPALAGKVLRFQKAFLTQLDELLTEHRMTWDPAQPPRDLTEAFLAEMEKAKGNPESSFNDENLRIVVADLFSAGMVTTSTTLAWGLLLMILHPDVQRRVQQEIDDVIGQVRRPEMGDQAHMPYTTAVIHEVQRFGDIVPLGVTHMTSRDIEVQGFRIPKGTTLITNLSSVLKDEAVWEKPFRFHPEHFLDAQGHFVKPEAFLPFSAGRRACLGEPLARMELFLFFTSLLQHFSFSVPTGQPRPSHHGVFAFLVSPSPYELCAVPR

CCC(C#N)(CC)c1ccc(CCC2(C3CCCC3)CC(=O)C(Cc3nc4nc(C)cc(C)n4n3)C(=O)O2)cc1F (configuration not stated) [2-[4-(2-{2-cyclopentyl-5-[(5,7-dimethyl[1,2,4]triazolo[1,5-a]pyrimidin-2-yl)methyl]-4-hydroxy-6-oxo-3,6-dihydro-2H-pyran-2-yl}ethyl)-2-fluorophenyl]-2-ethylbutanenitrile]
IC50: > 6 µM

Cc1cc(C)n2nc(CC3C(=O)CC(CCc4ccc(C(C)(C)O)c(F)c4)(C4CCCC4)OC3=O)nc2n1 (configuration not stated) [6-cyclopentyl-3-[(5,7-dimethyl[1,2,4]triazolo[1,5-a]pyrimidin-2-yl)methyl]-6-{2-[3-fluoro-4-(1-hydroxy-1-methylethyl)phenyl]ethyl}-4-hydroxy-5,6-dihydro-2H-pyran-2-one]
IC50: > 6 µM
